Holding throughout (format): in vivo
What all share (conditions): 250 g/ha, evaluated after 13 days

Test [1] deals with Amaranthus palmeri (AMAPA). The test can be described thus: Pre-emergence herbicide glasshouse test. As to the method:
(§1) Seeds of a variety of test species are sown in standard soil in pots Amaranthus palmeri (AMAPA), Amaranthus retoflexus (AMARE), Echinochloa crus-galli (ECHCG), Ipomoea hederacea (IPOHE)). After cultivation for one day (pre-emergence) or after 8 days cultivation (post-emergence) under controlled conditions in a glasshouse (at 24/16° C., day/night; 14 hours light; 65% humidity), the plants are sprayed with an aqueous spray solution derived from the formulation of the technical active ingredient in acetone/water (50:50) solution containing 0.5% Tween 20 (polyoxyethelyene sorbitan monolaurate, CAS RN 9005-64-5). Compounds are applied at 250 g/ha unless otherwise stated. The test plants are then grown in a glasshouse under controlled conditions in a glasshouse (at 24/16° C., day/night; 14 hours light; 65% humidity) and watered twice daily. After 13 days for pre and post-emergence, the test is evaluated for the percentage damage caused to the plant. The biological activities are shown in the following table on a five-point scale (5=81-100%; 4=61-80%; 3=41-60%; 2=21-40%; 1=0-20%).

For test [2], the system named is Ipomoea hederacea (IPOHE). The test can be described thus: Pre-emergence herbicide glasshouse test. As to the method:
as §1

For test [3], the system named is Amaranthus retoflexus (AMARE). Put plainly: Pre-emergence herbicide glasshouse test. As for the experimental part: as §1
Test [4] concerns Echinochloa crus-galli (ECHCG). The test can be described thus: Pre-emergence herbicide glasshouse test. As to the method: as §1
Test [5] concerns Amaranthus palmeri (AMAPA). Put plainly: Post-emergence herbicide glasshouse test. As for the experimental part:
as §1

Test [6] deals with Ipomoea hederacea (IPOHE). The test can be described thus: Post-emergence herbicide glasshouse test. As to the method:
as §1

Test [7] deals with Amaranthus retoflexus (AMARE). Put plainly: Post-emergence herbicide glasshouse test. As for the experimental part:
as §1

In test [8] the test system is Echinochloa crus-galli (ECHCG). The test can be described thus: Post-emergence herbicide glasshouse test. As to the method:
as §1

Take `N#Cc1ccc(Cn2cc(C(F)(F)F)nc2-c2ccc(C(F)(F)F)cc2)s1` [Compound 1.001]: the entries for the “percentage damage caused to the plant, AMAPA (five-point scale)” value in test [1] and in test [5] were 5 (5=81-100%) and 4 (4=61-80%), respectively. Also, the “percentage damage caused to the plant, IPOHE (five-point scale)” value in test [2] is 2 (2=21-40%); in test [6] it was 3 (3=41-60%). For the same compound, the “percentage damage caused to the plant, AMARE (five-point scale)” value in test [3] and in test [7] was 4 (4=61-80%) throughout. Also, the “percentage damage caused to the plant, ECHCG (five-point scale)” value in test [4] and in test [8] was 2 (2=21-40%) each time.

Turning to `FC(F)(F)c1ccc(-c2nc(C(F)(F)F)cn2Cc2nsc(Cl)n2)cc1` [Compound 1.002], the “percentage damage caused to the plant, AMAPA (five-point scale)” value in test [1] and in test [5] was 1 (1=0-20%) each time. Besides, the “percentage damage caused to the plant, IPOHE (five-point scale)” value in test [2] is given as 1 (1=0-20%); in test [6] it was 3 (3=41-60%). Besides, the “percentage damage caused to the plant, ECHCG (five-point scale)” value in test [4] and in test [8] was 1 (1=0-20%) in each case. Besides, in test [7], the “percentage damage caused to the plant, AMARE (five-point scale)” value is listed as 2 (2=21-40%).

Turning to `Cn1cnc(Cn2cc(C(F)(F)F)nc2-c2ccc(C(F)(F)F)cc2)n1` [Compound 1.003, 1-methyl-3-[[4-(trifluoromethyl)-2-[4-(trifluoromethyl)phenyl]imidazol-1-yl]methyl]-1,2,4-triazole], the “percentage damage caused to the plant, AMAPA (five-point scale)” value in test [1] is listed as 5 (5=81-100%); in test [5], 4 (4=61-80%). In addition, the “percentage damage caused to the plant, IPOHE (five-point scale)” value in test [2] and in test [6] was 5 (5=81-100%) in each case. Also, the “percentage damage caused to the plant, AMARE (five-point scale)” value in test [3] is given as 5 (5=81-100%); in test [7] it was 4 (4=61-80%). The results for the “percentage damage caused to the plant, ECHCG (five-point scale)” value in test [4] and in test [8] were 5 (5=81-100%) and 4 (4=61-80%), respectively.

Turning to `CC(C)(C)c1nc(Cn2cc(C(F)(F)F)nc2-c2ccc(C(F)(F)F)cc2)no1` [Compound 1.004], the “percentage damage caused to the plant, AMAPA (five-point scale)” value in test [1] and in test [5] was 1 (1=0-20%) each time. Besides, the results for the “percentage damage caused to the plant, IPOHE (five-point scale)” value in test [2] and in test [6] were 1 (1=0-20%) and 2 (2=21-40%), respectively. In addition, the “percentage damage caused to the plant, AMARE (five-point scale)” value in test [3] and in test [7] was 1 (1=0-20%) in each case. For the same compound, the “percentage damage caused to the plant, ECHCG (five-point scale)” value in test [4] and in test [8] was 1 (1=0-20%) in each case.

For `Cc1noc(C)c1Cn1cc(C(F)(F)F)nc1-c1ccc(C(F)(F)F)cc1` [Compound 1.005], the “percentage damage caused to the plant, AMAPA (five-point scale)” value is recorded as 5 (5=81-100%) in test [1] and 1 (1=0-20%) in test [5]. In addition, the “percentage damage caused to the plant, IPOHE (five-point scale)” value in test [2] and in test [6] was 1 (1=0-20%) throughout. Moreover, the “percentage damage caused to the plant, AMARE (five-point scale)” value in test [3] was 5 (5=81-100%); in test [7], 1 (1=0-20%). The “percentage damage caused to the plant, ECHCG (five-point scale)” value in test [4] and in test [8] was 1 (1=0-20%) in each case.

As for `Cc1nonc1Cn1cc(C(F)(F)F)nc1-c1ccc(C(F)(F)F)cc1` [Compound 1.006], the “percentage damage caused to the plant, AMAPA (five-point scale)” value in test [1] and in test [5] was 1 (1=0-20%) each time. Also, the “percentage damage caused to the plant, IPOHE (five-point scale)” value in test [2] and in test [6] was 1 (1=0-20%) in each case. Further, the “percentage damage caused to the plant, AMARE (five-point scale)” value in test [3] and in test [7] was 1 (1=0-20%) throughout. Also, the “percentage damage caused to the plant, ECHCG (five-point scale)” value in test [4] and in test [8] was 1 (1=0-20%) throughout.

For the compound `Cc1nnc(Cn2cc(C(F)(F)F)nc2-c2ccc(C(F)(F)F)cc2)s1` [Compound 1.007], the “percentage damage caused to the plant, AMAPA (five-point scale)” value in test [1] and in test [5] was 5 (5=81-100%) throughout. The “percentage damage caused to the plant, IPOHE (five-point scale)” value in test [2] and in test [6] was 5 (5=81-100%) throughout. Further, the “percentage damage caused to the plant, AMARE (five-point scale)” value in test [3] and in test [7] was 5 (5=81-100%) each time. In addition, the “percentage damage caused to the plant, ECHCG (five-point scale)” value in test [4] and in test [8] was 5 (5=81-100%) each time.

Take `Cc1noc(Cn2cc(C(F)(F)F)nc2-c2ccc(C(F)(F)F)cc2)n1` [Compound 1.008]: the entries for the “percentage damage caused to the plant, AMAPA (five-point scale)” value in test [1] and in test [5] were 5 (5=81-100%) and 4 (4=61-80%), respectively. Further, the “percentage damage caused to the plant, IPOHE (five-point scale)” value is 3 (3=41-60%) in test [2] and 4 (4=61-80%) in test [6]. The “percentage damage caused to the plant, AMARE (five-point scale)” value in test [3] is recorded as 5 (5=81-100%); in test [7] it was 4 (4=61-80%). Moreover, the entries for the “percentage damage caused to the plant, ECHCG (five-point scale)” value in test [4] and in test [8] were 1 (1=0-20%) and 2 (2=21-40%), respectively.

On to `FC(F)(F)c1ccc(-c2nc(C(F)(F)F)cn2Cc2ccno2)cc1` [Compound 1.009], for which the “percentage damage caused to the plant, AMAPA (five-point scale)” value in test [1] and in test [5] was 1 (1=0-20%) throughout. The “percentage damage caused to the plant, IPOHE (five-point scale)” value in test [2] is 1 (1=0-20%); in test [6] it was 3 (3=41-60%). For the same compound, the “percentage damage caused to the plant, AMARE (five-point scale)” value in test [3] is listed as 1 (1=0-20%); in test [7] it was 2 (2=21-40%). The “percentage damage caused to the plant, ECHCG (five-point scale)” value in test [4] and in test [8] was 1 (1=0-20%) in each case.

On to `Cc1nc(Cn2cc(C(F)(F)F)nc2-c2ccc(C(F)(F)F)cc2)cs1` [Compound 1.010], for which the “percentage damage caused to the plant, AMAPA (five-point scale)” value is given as 2 (2=21-40%) in test [1] and 1 (1=0-20%) in test [5]. Moreover, the “percentage damage caused to the plant, IPOHE (five-point scale)” value in test [2] is given as 2 (2=21-40%); in test [6], 3 (3=41-60%). For the same compound, the results for the “percentage damage caused to the plant, AMARE (five-point scale)” value in test [3] and in test [7] were 5 (5=81-100%) and 2 (2=21-40%), respectively. Also, the “percentage damage caused to the plant, ECHCG (five-point scale)” value in test [4] and in test [8] was 1 (1=0-20%) in each case.

On to `COCCc1noc(Cn2cc(C(F)(F)F)nc2-c2ccc(C(F)(F)F)cc2)n1` [Compound 1.011], for which the “percentage damage caused to the plant, AMAPA (five-point scale)” value in test [1] and in test [5] was 1 (1=0-20%) each time. In addition, the “percentage damage caused to the plant, IPOHE (five-point scale)” value in test [2] and in test [6] was 1 (1=0-20%) each time. Further, the “percentage damage caused to the plant, AMARE (five-point scale)” value in test [3] and in test [7] was 1 (1=0-20%) throughout. Also, the “percentage damage caused to the plant, ECHCG (five-point scale)” value in test [4] and in test [8] was 1 (1=0-20%) throughout.

Regarding `Cc1nc(Cn2cc(C(F)(F)F)nc2-c2ccc(C(F)(F)F)cc2)co1` [Compound 1.012], the “percentage damage caused to the plant, IPOHE (five-point scale)” value in test [2] is 1 (1=0-20%); in test [6], 3 (3=41-60%). For the same compound, the figures for the “percentage damage caused to the plant, AMARE (five-point scale)” value in test [3] and in test [7] were 2 (2=21-40%) and 1 (1=0-20%), respectively. Also, the “percentage damage caused to the plant, ECHCG (five-point scale)” value in test [4] and in test [8] was 1 (1=0-20%) each time. The “percentage damage caused to the plant, AMAPA (five-point scale)” value in test [5] is 1 (1=0-20%).

With `Cc1cc(Cn2cc(C(F)(F)F)nc2-c2ccc(C(F)(F)F)cc2)no1` [Compound 1.013], the “percentage damage caused to the plant, AMAPA (five-point scale)” value in test [1] and in test [5] was 5 (5=81-100%) throughout. Also, the “percentage damage caused to the plant, IPOHE (five-point scale)” value in test [2] was 5 (5=81-100%); in test [6], 4 (4=61-80%). Moreover, the entries for the “percentage damage caused to the plant, AMARE (five-point scale)” value in test [3] and in test [7] were 5 (5=81-100%) and 4 (4=61-80%), respectively. The “percentage damage caused to the plant, ECHCG (five-point scale)” value is given as 5 (5=81-100%) in test [4] and 4 (4=61-80%) in test [8].

(Values after US20260125360A1, “HERBICIDAL IMIDAZOLE COMPOUNDS” (SYNGENTA CROP PROTECTION AG, priority 2022, published 2026).)
